Source: patent US20230047788A1, “COMPOSITIONS COMPRISING 5-CHOLESTEN-3, 25-DIOL, 3-SULFATE (25HC3S) OR PHARMACEUTICALLY ACCEPTABLE SALT THEREOF AND AT LEAST ONE CYCLIC OLIGOSACCHARIDE” (Virginia Commonwealth University, priority 2016, published 2023)
Values joined by “and” are separate entries in the source; they are usually repeats but may differ in a detail not shown here. Equal entries are not always repeated.

Test: Infusion compatibility of constituted 25HC3S solution with 5% dextrose, 0.9% sodium chloride and two infusion sets
Format: physicochemical
Details: for % Remaining after infusion set / Concentration after infusion set / Osmolality after infusion set / pH after infusion set: 0.9% NaCl
Description: After constitution with Vehicle, the 30 mg/mL 25HC3S product was diluted into 100 mL of 5% dextrose injection, USP or 0.9% sodium chloride injection, USP, and was administered to subjects as an IV infusion ranging from a 30 mg to 150 mg 25HC3S dose. This was accomplished by adding 1.0 mL (for the 30 mg dose) or 5.0 mL (for the 150 mg dose), or any volume in between, of the 30 mg/mL 25HC3S product into a 100 mL dextrose or sodium chloride infusion bag. The entire admixture content in the infusion bag was infused into the subject over approximately 2 hours at a rate of 50 mL/hour.
A physical and chemical compatibility study was conducted at a 30 mg, 48 mg and 300 mg 25HC3S dose in 5% dextrose and 0.9% sodium chloride infusion bags. Descriptions of the two kinds of infusion sets tested with 25HC3S product diluted in 5% dextrose and 0.9% sodium chloride are listed in Table 15. The tubing in catalog number 2H8480 infusion set was composed of polyvinylchloride (PVC), while the tubing in catalog number 2C8858 was polyethylene lined except for a short pump segment (approximately 12 inches) which was composed of PVC.
25HC3S for Injection and Vehicle for 25HC3S for Injection, that had been stored at 2-8° C. for approximately 16 months, were used for the compatibility study. After constitution, 30 mg (1.0 mL of constituted product), 48 mg (1.6 mL of constituted product) or 300 mg (10 mL of constituted product) were added to 100 mL infusion bags of 5% dextrose and 0.9% sodium chloride, mixed thoroughly, and stored for 24 hours at room temperature and at 2-8° C. […] Taking into consideration the overfill per infusion bag and the additional volume introduced by adding the constituted 25HC3S product to each bag, the expected concentrations of 25HC3S were 0.28 mg/mL, 0.44 mg/mL, and 2.56 mg/mL in the infusion bags. Two kinds of infusion sets were then attached to the drug containing infusion bags, and the entire contents were eluted through the infusion sets at approximately 50 mL/hour at room temperature. Samples were collected from the 25HC3S prepared infusion bags at T=0 and at 24 hours, and from the total eluent passed through the infusion sets, and tested for 25HC3S concentration using HPLC. Solution visual appearance, osmolality (using method USP<785>), and pH (using method USP<791>) were also measured on the collected samples.

[1] = ~0.28 mg/mL, 24 h 2-8°C then Baxter 2C8858
[2] = ~0.28 mg/mL, 24 h 2-8°C then Baxter 2H8480
[3] = ~0.28 mg/mL, 24 h RT then Baxter 2C8858
[4] = ~0.28 mg/mL, 24 h RT then Baxter 2H8480
[5] = ~0.44 mg/mL, 24 h 2-8°C then Baxter 2C8858
[6] = ~0.44 mg/mL, 24 h 2-8°C then Baxter 2H8480
[7] = ~0.44 mg/mL, 24 h RT then Baxter 2C8858
[8] = ~0.44 mg/mL, 24 h RT then Baxter 2H8480
[9] = ~2.56 mg/mL, 24 h 2-8°C then Baxter 2C8858
[10] = ~2.56 mg/mL, 24 h 2-8°C then Baxter 2H8480
[11] = ~2.56 mg/mL, 24 h RT then Baxter 2C8858
[12] = ~2.56 mg/mL, 24 h RT then Baxter 2H8480
[13] = 0.9% sodium chloride bag, ~0.28 mg/mL, 24 Hours at 2-8°C
[14] = 0.9% sodium chloride bag, ~0.28 mg/mL, 24 Hours at RT
[15] = 0.9% sodium chloride bag, ~0.28 mg/mL, T = 0
[16] = 0.9% sodium chloride bag, ~0.44 mg/mL, 24 Hours at 2-8°C
[17] = 0.9% sodium chloride bag, ~0.44 mg/mL, 24 Hours at RT
[18] = 0.9% sodium chloride bag, ~0.44 mg/mL, T = 0
[19] = 0.9% sodium chloride bag, ~2.56 mg/mL, 24 Hours at 2-8°C
[20] = 0.9% sodium chloride bag, ~2.56 mg/mL, 24 Hours at RT
[21] = 0.9% sodium chloride bag, ~2.56 mg/mL, T = 0

C[C@H](CCCC(C)(C)O)[C@H]1CC[C@H]2[C@@H]3CC=C4C[C@@H](OS(=O)(=O)[O-])CC[C@]4(C)[C@H]3CC[C@]12C.[Na+] [25HC3S, 5-cholesten-3, 25-diol, 3-sulfate]
% Remaining after infusion set [1]: (100.0%)
Concentration after infusion set [1]: 275 µg/mL
Osmolality after infusion set [1]: 276 mmol/kg
pH after infusion set [1]: 5.78
% Remaining after infusion set [2]: (100.4%)
Concentration after infusion set [2]: 275 µg/mL
Osmolality after infusion set [2]: 277 mmol/kg
pH after infusion set [2]: 5.81
% Remaining after infusion set [3]: (100.0%)
Concentration after infusion set [3]: 274 µg/mL
Osmolality after infusion set [3]: 276 mmol/kg
pH after infusion set [3]: 5.83
% Remaining after infusion set [4]: (99.6%)
Concentration after infusion set [4]: 272 µg/mL
Osmolality after infusion set [4]: 276 mmol/kg
pH after infusion set [4]: 5.78
% Remaining after infusion set [5]: (100.2%)
Concentration after infusion set [5]: 426 µg/mL
Osmolality after infusion set [5]: 281 mmol/kg
pH after infusion set [5]: 7.16
% Remaining after infusion set [6]: (100.0%)
Concentration after infusion set [6]: 434 µg/mL
Osmolality after infusion set [6]: 282 mmol/kg
pH after infusion set [6]: 7.13
% Remaining after infusion set [7]: (100.0%)
Concentration after infusion set [7]: 424 µg/mL
Osmolality after infusion set [7]: 288 mmol/kg
pH after infusion set [7]: 7.20
% Remaining after infusion set [8]: (99.8%)
Concentration after infusion set [8]: 433 µg/mL
Osmolality after infusion set [8]: 286 mmol/kg
pH after infusion set [8]: 7.09
% Remaining after infusion set [9]: (99.8%)
Concentration after infusion set [9]: 2520 µg/mL
Osmolality after infusion set [9]: 283 mmol/kg
pH after infusion set [9]: 5.70
% Remaining after infusion set [10]: (100.0%)
Concentration after infusion set [10]: 2530 µg/mL
Osmolality after infusion set [10]: 283 mmol/kg
pH after infusion set [10]: 5.72
% Remaining after infusion set [11]: (99.6%)
Concentration after infusion set [11]: 2520 µg/mL
Osmolality after infusion set [11]: 279 mmol/kg
pH after infusion set [11]: 5.83
% Remaining after infusion set [12]: (100.4%)
Concentration after infusion set [12]: 2460 µg/mL
Osmolality after infusion set [12]: 283 mmol/kg
pH after infusion set [12]: 5.81
Concentration [13]: 275 µg/mL
Osmolality [13]: 276 mmol/kg
pH [13]: 5.87 and 5.99
Concentration [14]: 272 µg/mL and 274 µg/mL
Osmolality [14]: 275 mmol/kg and 277 mmol/kg
pH [14]: 5.93 and 5.92
Osmolality [15]: 278 mmol/kg and 277 mmol/kg
T = 0 Conc. [15]: 0.273 mg/mL and 0.274 mg/mL and 0.275 mg/mL
pH [15]: 6.39 and 6.43 and 6.45 and 6.40
% Remaining Compared to T = 0 [16]: (100.0%)
Concentration [16]: 434 µg/mL and 425 µg/mL
Osmolality [16]: 281 mmol/kg
pH [16]: 7.43 and 7.19
% Remaining Compared to T = 0 [17]: (100.0%)
Concentration [17]: 434 µg/mL and 424 µg/mL
Osmolality [17]: 280 mmol/kg
pH [17]: 7.33 and 7.41
Osmolality [18]: 277 mmol/kg and 279 mmol/kg and 284 mmol/kg and 280 mmol/kg
T = 0 Conc. [18]: 0.434 mg/mL and 0.424 mg/mL and 0.425 mg/mL
pH [18]: 7.30 and 7.43 and 7.21 and 7.44
Concentration [19]: 2510 µg/mL and 2520 µg/mL
Osmolality [19]: 283 mmol/kg
pH [19]: 5.93 and 5.96
Concentration [20]: 2500 µg/mL and 2525 µg/mL
Osmolality [20]: 282 mmol/kg
pH [20]: 6.01 and 5.86
Osmolality [21]: 282 mmol/kg and 281 mmol/kg
T = 0 Conc. [21]: 2.450 mg/mL and 2.530 mg/mL and 2.525 mg/mL
pH [21]: 6.20 and 6.10 and 6.07 and 6.11
deviation of concentrations from initial T=0 time point (0.9% sodium chloride, 24 hours at RT and 2-8°C and after elution through infusion sets): ≤ 2.0%
Concentration (5% dextrose bag, ~0.28 mg/mL, 24 Hours at 2-8°C): 280 µg/mL
